pIC50: −log10 of the molar value. Like-named read-outs stand apart in the source and are kept apart here.
Tests used:
[1] = biological target: farnesyl protein transferase (K-ras) (Homo sapiens, UniProt P49354+P49356); assay: FPT IC50 (K-ras), in vitro enzyme assay; assay type: biochemical
Experimental: (§1) FPT IC50 (inhibition of farnesyl protein transferase, in vitro enzyme assay), GGPT IC50 (inhibition of geranylgeranyl protein transferase, in vitro enzyme assay) and COS Cell IC50 (Cell-Based Assay) were determined following the assay procedures described in WO 95/10516, published Apr. 20, 1995. Cell Mat Assay, and anti-tumor activity (in vivo anti-tumor studies) could be determined by the assay procedures described in WO 95/10516. The disclosure of WO 95/10516 is incorporated herein by reference thereto.

[2] = biological target: farnesyl protein transferase; assay: FPT IC50 (inhibition of farnesyl protein transferase, in vitro enzyme assay); assay type: biochemical
Excerpt: In Table 2 "Ex. No." stands for "Example Number". In Table 2, FPT IC50 results are less indicated otherwise.

COS Cell = COS Cell IC50 (Cell-Based Assay)
Experimental: as §1

Human tumor cells = assay: Soft Agar Assay (anchorage-independent growth); assay type: cell-based; conditions: Table 4, colonies after 10-16 days at 37° C.
Experimental: Soft Agar Assay: Anchorage-independent growth is a characteristic of tumorigenic cell lines. Human tumor cells are suspended in growth medium containing 0.3% agarose and an indicated concentration of a farnesyl transferase inhibitor. The solution is overlayed onto growth medium solidified with 0.6% agarose containing the same concentration of farnesyl transferase inhibitor as the top layer. After the top layer is solidified, plates are incubated for 10-16 days at 37° C. under 5% CO2 to allow colony outgrowth. […] Colonies can be counted and the IC50 's can be determined.

SMILES	pIC50 ([2]; Table 3)	pIC50 (Human tumor cells; Homo sapiens)	pIC50 (COS Cell; Table 4)	also measured
O=CN1CCC(CC(=O)N2CCC([C@H]3c4ncc(Br)cc4CCc4cc(Cl)cc(Br)c43)CC2)CC1 [Compound 5.0-B]	8.43		8.10	pIC50 [1]: 7.80
O=C1NC[C@@H](C(=O)N2CCC(CC(=O)N3CCC([C@H]4c5ncc(Br)cc5CCc5cc(Cl)cc(Br)c54)CC3)CC2)N1 [Compound 15.0-B]	8.70	6.55	7.48	pIC50 (Human tumor cells): 6.43
O=C1N[C@H](C(=O)N2CCC(CC(=O)N3CCC([C@H]4c5ncc(Br)cc5CCc5cc(Cl)cc(Br)c54)CC3)CC2)CO1 [Compound 28.0-B]	8.64	6.92	8.15	
O=C(CC1CCN(C(=O)c2cccn2Cc2ccccc2)CC1)N1CCC([C@H]2c3ncc(Br)cc3CCc3cc(Cl)cc(Br)c32)CC1 [Compound 41.0-B]	8.77	< 6.30	7.52	
CC(C)(C)OC(=O)Cn1cccc1C(=O)N1CCC(CC(=O)N2CCC([C@H]3c4ncc(Br)cc4CCc4cc(Cl)cc(Br)c43)CC2)CC1 [Compound 61.0-B]	7.96			
CC(=O)O[C@H]1CC[C@@H](C(=O)N2CCC(CC(=O)N3CCC([C@H]4c5ncc(Br)cc5CCc5cc(Cl)cc(Br)c54)CC3)CC2)CC1 [Compound 66.0-B]	8.14	6.36	8.00	
O=C(CC1CCN(C(=O)[C@H]2CC[C@@H](O)CC2)CC1)N1CCC([C@H]2c3ncc(Br)cc3CCc3cc(Cl)cc(Br)c32)CC1 [Compound 73.0-B]	8.35	6.44	7.62	
O=C1C[C@@H](C(=O)N2CCC(CC(=O)N3CCC([C@H]4c5ncc(Br)cc5CCc5cc(Cl)cc(Br)c54)CC3)CC2)NC(=O)N1 [Compound 78.0-B]	8.59	6.77	7.52	
O=C(CC1CCN(C(=O)[C@@H]2CSCN2)CC1)N1CCC([C@H]2c3ncc(Br)cc3CCc3cc(Cl)cc(Br)c32)CC1 [Compound 80.0-B]	8.59	< 6.30		
O=C(NC(=O)C(Cl)(Cl)Cl)O[C@H]1CC[C@@H](C(=O)N2CCC(CC(=O)N3CCC([C@H]4c5ncc(Br)cc5CCc5cc(Cl)cc(Br)c54)CC3)CC2)CC1 [Compound 93.0-B]	8.24	6.39	7.52	
NC(=O)O[C@H]1CC[C@@H](C(=O)N2CCC(CC(=O)N3CCC([C@H]4c5ncc(Br)cc5CCc5cc(Cl)cc(Br)c54)CC3)CC2)CC1 [Compound 94.0-B]	8.40	6.68	7.60	
N#CN=C(Oc1ccccc1)N1CCC(CC(=O)N2CCN(C3c4ccc(Cl)cc4CCc4cc(Br)cnc43)CC2)CC1 (centres unmarked) [Example 1, PHENYL 4-[2-[4-(3-BROMO-8-CHLORO-6,11-DIHYDRO-5H-BENZO[5,6]CYCLOHEPTA[1,2-b]PYRIDIN-11-YL]-1-PIPERAZINYL]-2-OXOETHYL]-N-CYANO-1-PIPERIDINE-CARBOXIMIDATE]				FPT inhibition (column FPT IC50) ([2]; @ 0.3 μM, Table 2): 44%
N#CNC(=N)N1CCC(CC(=O)N2CCN(C3c4ccc(Cl)cc4CCc4cc(Br)cnc43)CC2)CC1 (centres unmarked) [Example 2, 4-[2-[4-(3-BROMO-8-CHLORO-6,11-DIHYDRO-5 H-BENZO[5,6]CYCLOHEPTA[1,2-b]PYRIDIN-11-YL)-1-PIPERAZINYL]-2-OXOETHYL]-N-CYANO-1-PIPERIDINE-CARBOXIMIDAMIDE]				pIC50 ([2]; Table 2): 7.00
N#CN1CCC(CC(=O)N2CCN(C3c4ccc(Cl)cc4CCc4cc(Br)cnc43)CC2)CC1 (centres unmarked) [Example 4]				pIC50 ([2]; Table 2): 7.27
N=C(NS(N)(=O)=O)N1CCC(CC(=O)N2CCN(C3c4ccc(Cl)cc4CCc4cc(Br)cnc43)CC2)CC1 (centres unmarked) [Example 6, 4-[2-[4-(3-BROMO-8-CHLORO-6,11-DIHYDRO-5H-BENZO[5,6]CYCLOHEPTA[1,2-b]PYRIDIN-11-YL)-1-PIPERAZINYL]2-OXOETHYL]-N-SULFAMOYL-1-PIPERIDINE-CARBOXIMIDAMIDE]				pIC50 ([2]; Table 2): 6.92
NC(=NO)N1CCC(CC(=O)N2CCN(C3c4ccc(Cl)cc4CCc4cc(Br)cnc43)CC2)CC1 (centres unmarked) [Example 11, 4-[2-[4-(3-BROMO-8-CHLORO-6,11-DIHYDRO-5 H-BENZO[5,6CYCLOHEPTA[1,2-b]PYRIDIN-11-YL-1-PIPERAZINYL]-2-OXOETHYL]-N-HYDROXY-1-PIPERIDINE-CARBOXIMIDATE]				pIC50 ([2]; Table 2): 7.24
NC(=O)NC(=O)N=C(Oc1ccccc1)N1CCC(CC(=O)N2CCN(C3c4ccc(Cl)cc4CCc4cc(Br)cnc43)CC2)CC1 (centres unmarked) [Example 13, PHENYL N- [[(AMINOCARBONYL)AMINO]CARBONYL]4-[2-[4-(3-BROMO-8-CHLORO-6,11-DIHYDRO-5 H-BENZO[5,6CYCLOHEPTA-[1,2-b]PYRIDIN-11-YL)-1-PIPERAZINYL]-2-OXOETHYL]-1-PIPERIDINECARBOXIMIDATE]				pIC50 ([2]; Table 2): 6.85
N=C(NC(=O)NC(N)=O)N1CCC(CC(=O)N2CCN(C3c4ccc(Cl)cc4CCc4cc(Br)cnc43)CC2)CC1 (centres unmarked) [Example 14, N-[[(AMINOCARBONYL)AMINO]CARBONYL]-4-[2-[4-(3-BROMO-8-CHLORO-6,11-DIHYDRO-5H-BENZO[5,6]CYCLOHEPTA[1,2-b]-PYRIDIN-11-YL)-1-PIPERAZINYL]2-OXOETHYL]-1-PIPERIDINECARBOXIMIDAMIDE]				pIC50 ([2]; Table 2): 7.11
N#CN1CCC(CC(=O)N2CCC([C@H]3c4ncc(Br)cc4CCc4cc(Cl)cc(Br)c43)CC2)CC1 [Example 26]				pIC50 ([2]; Table 2): 8.64; pIC50 (COS Cell; Table 2): 7.92
N=C(Oc1ccccc1)N1CCC(CC(=O)N2CCC(C3c4ccc(Cl)c(Br)c4CCc4cc(Br)cnc43)CC2)CC1 (centres unmarked) [Example 27]				pIC50 ([2]; Table 2): 7.41
N=C(N)N1CCC(CC(=O)N2CCC(C3c4ccc(Cl)c(Br)c4CCc4cc(Br)cnc43)CC2)CC1 (centres unmarked) [Example 28]				pIC50 ([2]; Table 2): 7.64; inhibition at 1 µM (COS Cell; @ 1 μM, Table 2): 0%
N#CN1CCC(CC(=O)N2CCC(C3c4ccc(Cl)c(Br)c4CCc4cc(Br)cnc43)CC2)CC1 (centres unmarked) [Example 30]				pIC50 ([1]; Table 2): 7.41; pIC50 ([2]; Table 2): 8.15; pIC50 (COS Cell; Table 2): 6.34

Further lines, with some results ahead:

pIC50 ([2]; Table 3)	pIC50 (Human tumor cells; Homo sapiens)	SMILES	pIC50 (COS Cell; Table 4)	also measured
9.10	< 6.30	O=C(O)c1cncc(C(=O)N2CCC(CC(=O)N3CCC([C@H]4c5ncc(Br)cc5CCc5cc(Cl)cc(Br)c54)CC3)CC2)c1 [Compound 25.0-B]	< 6.00	
8.40	6.43	Cc1noc(C)c1C(=O)N1CCC(CC(=O)N2CCC([C@H]3c4ncc(Br)cc4CCc4cc(Cl)cc(Br)c43)CC2)CC1 [Compound 27.0-B]	8.00	
8.66	6.30	NC(=O)c1cncc(C(=O)N2CCC(CC(=O)N3CCC([C@H]4c5ncc(Br)cc5CCc5cc(Cl)cc(Br)c54)CC3)CC2)c1 [Compound 29.0-B]	7.68	
8.52	6.82	O=C(CC1CCN(C(=O)c2cn[nH]c2)CC1)N1CCC([C@H]2c3ncc(Br)cc3CCc3cc(Cl)cc(Br)c32)CC1 [Compound 31.0-B]	8.15	
8.59	6.74	CC(=O)N1CCC(CC(=O)N2CCC([C@H]3c4ncc(Br)cc4CCc4cc(Cl)cc(Br)c43)CC2)CC1 [Compound 36.0-B]	7.30	pIC50 (Human tumor cells): 6.77
8.49	6.51	NC(=O)Cn1cccc1C(=O)N1CCC(CC(=O)N2CCC([C@H]3c4ncc(Br)cc4CCc4cc(Cl)cc(Br)c43)CC2)CC1 [Compound 42.0-B]	7.57	
8.42	6.70	CS(=O)(=O)n1cccc1C(=O)N1CCC(CC(=O)N2CCC([C@H]3c4ncc(Br)cc4CCc4cc(Cl)cc(Br)c43)CC2)CC1 [Compound 43.0-B]	> 8.00	
8.72	6.78	O=C(CC1CCN(C(=O)c2ccc[n+]([O-])c2)CC1)N1CCC([C@H]2c3ncc(Br)cc3CCc3cc(Cl)cc(Br)c32)CC1 [Compound 46.0-B]	8.15	
8.54	6.35	O=C(CC1CCN(C(=O)c2ccc(O)nc2)CC1)N1CCC([C@H]2c3ncc(Br)cc3CCc3cc(Cl)cc(Br)c32)CC1 [Compound 47.0-B]	7.46	
8.68	< 6.30	O=C(CC1CCN(C(=O)c2cccnc2O)CC1)N1CCC([C@H]2c3ncc(Br)cc3CCc3cc(Cl)cc(Br)c32)CC1 [Compound 48.0-B]	7.33	
8.55	< 6.30	O=C(O)Cn1cccc1C(=O)N1CCC(CC(=O)N2CCC([C@H]3c4ncc(Br)cc4CCc4cc(Cl)cc(Br)c43)CC2)CC1 [Compound 62.0-B]	6.15	
8.49	6.30	O=C(CC1CCN(C(=O)c2ncccc2O)CC1)N1CCC([C@H]2c3ncc(Br)cc3CCc3cc(Cl)cc(Br)c32)CC1 [Compound 83.0-B]	7.92	
8.07	7.00	O=C(CC1CCN(C(=O)c2ccoc2)CC1)N1CCC([C@H]2c3ncc(Br)cc3CCc3cc(Cl)cc(Br)c32)CC1 [Compound 84.0-B]	7.96	
8.60	< 6.30	O=C(CC1CCN(C(=O)c2ccc(O)nc2)CC1)N1CCC([C@@H]2c3c(Br)cc(Cl)cc3CCc3cc(Br)c[n+]([O-])c32)CC1 [Compound 91.0-B]	6.30	
8.11	< 6.30	CCn1cccc1C(=O)N1CCC(CC(=O)N2CCC([C@H]3c4ncc(Br)cc4CCc4cc(Cl)cc(Br)c43)CC2)CC1 [Example 54]	7.40	

— US5861395A, “Compounds useful for inhibition of farnesyl proteins transferase” (Schering Corporation, priority 1997, dated 1999)
